Where two headings read alike, the source gives them in different places. Peptide text beside a SMILES is read from it. * marks the point of attachment. Myristoyl = CCCCCCCCCCCCCC(=O)*
Experiments:
[1] = tested on: platelets; assay: Platelet activation, platelet count in citrate anticoagulated PRP; assay type: cell-based, human; settings: 128 μg/mL, 2 h, 37 °C, Sysmex analyzer, n = 3
Experimental: (§1) Since it was observed that some AMPs are able to activate the plasmatic coagulation system of heparinized and citrate anticoagulated blood, the influence of this peptides on platelets was investigated. For this purpose, fresh heparinized and citrated blood were collected from three donors. The blood was centrifuged at 500 g for 5 min and platelet rich plasma (PRP) was obtained. The PRP was incubated at 37 °C for 2 h with 128 μg/mL AMP, PMB, and LL-37. PRP without any additives served as the control. After incubation, the platelet number was determined by a Sysmex Automated Hematology Analyzer KX-21-N (Kobe, Japan). In addition, the PRP samples were prepared for SEM to visualize the morphology of the thrombocytes. After incubation, 10 μL PRP were diluted with 990 μL PBS (0.01 M) and filtered through a 0.2 μm membrane (Membrane Filter Isopore 0.2 μm, Merck, Darmstadt, Germany). The platelets were retained on the membrane, washed with 1 mL PBS, and fixed with 1 mL glutaraldehyde solution (2.5% glutaraldehyde in physiological saline solution). After an incubation time of 60 min, the samples were dehydrated using a series of ethanol (30%, 50%, 60%, 70%, 80%, 90%, and 100%). Afterwards the samples were dried overnight at RT, sputtered with gold and visualized with a scanning electron microscope (FLEXSem 1000, Hitachi, Japan).

[2] = tested on: human leukocytes; assay: Cytotoxicity on leukocytes in whole blood, flow cytometry (7-AAD); assay type: cell-based; settings: citrate anticoagulated whole blood, 128 μg/mL, 37 °C, 120 min / 60 min, CD45, flow cytometry, n = 3
Experimental: The measurement of the membrane destabilization of leukocytes by AMPs was carried out by flow cytometry. […] Whole blood without AMPs or antibiotics was used as a control. After incubation, the proportion of apoptotic and dead cells was determined by flow cytometry. To achieve this, blood samples were diluted 1:100 with 0.01 M phosphate buffered saline and centrifuged at 300 g for 10 min. The supernatant was removed, and cells were stained with 10 μL CD45 pacific blue (leukocyte marker; Beckman coulter, Brea, CA) and 10 μL 7-AAD (a marker for dead cells; Sigma-Aldrich, Steinheim, Germany) for 15 min at room temperature in the dark. After incubation, 1.8 mL lysis buffer (1:10 dilution in distilled water) was added, mixed, and incubated for 10 min at room temperature in the dark. This was followed by two washing steps (2300 g, 5 min, room temperature) and the cells were resuspended in a final volume of 200 μL 0.01 M PBS for measurement. Flow cytometry was performed using a Gallios flow cytometer (Beckman Coulter, Brea, CA, USA) equipped with 405 nm, 488 nm, and 638 nm lasers and the Kaluza Analysis Software (Beckman Coulter, Brea, CA, USA), which was used for measurement and data analysis. Blood cells which were incubated in 70% methanol before staining served as the positive control and blood cells without any additives were used as the negative control.

[3] = tested on: S. aureus (ATCC 12600); assay: microbe, parasite or virus in culture; assay type: cell-based; settings: for MIC: Staphylococcus aureus
[4] = tested on: platelets; assay: SEM imaging of platelet morphology in PRP; assay type: cell-based, human; settings: 128 μg/mL, 2 h, 37 °C
Experimental: as §1

[5] = tested on: platelets; assay: Platelet activation, platelet count in heparin anticoagulated PRP; assay type: cell-based, human; settings: 128 μg/mL, 2 h, 37 °C, Sysmex analyzer, n = 3
Experimental: as §1

[6] = tested on: plasmatic coagulation; assay: Clotting batch test in citrate plasma; assay type: biochemical, human; as to Clotting of citrate plasma, Peptide Concentration 128 μg/mL: key: −: no clotting observed, no D-dimers and normal fibrinogen level; +: clotting observed, high D-dimer level, no detectable fibrinogen serum level; as to Clotting of citrate plasma, Peptide Concentration 256 μg/mL: key: −: no clotting observed, no D-dimers and normal fibrinogen level; +: clotting observed, high D-dimer level, no detectable fibrinogen serum level; as to Clotting of citrate plasma, Peptide Concentration 32 μg/mL: key: −: no clotting observed, no D-dimers and normal fibrinogen level; +: clotting observed, high D-dimer level, no detectable fibrinogen serum level; as to Clotting of citrate plasma, Peptide Concentration 8 μg/mL: key: −: no clotting observed, no D-dimers and normal fibrinogen level; +: clotting observed, high D-dimer level, no detectable fibrinogen serum level
Experimental: Since the acylated LF11-322 peptides cause plasmatic coagulation of citrate anticoagulated plasma, separate clotting experiments were performed with this peptide group. The aim was to check whether the coagulation activation is dependent on the AMP concentration and on the acyl chain length. […] Plasma without additives served as the negative control, whereas plasma spiked with CaCl2/MgCl2 (500/250 mM) solution to restore the physiological calcium and magnesium level in plasma was used as the positive control. Incubation was performed at 37 °C for 60 min. […] In order to ensure that the measured turbidity of the plasma is caused by fibrin formation, the fibrinogen and D-Dimer concentrations were additionally determined. During plasmatic clotting, the fibrinogen level decreases and the D-Dimer level in serum increases. Both were analyzed on a Sysmex CA560 with the corresponding reagents (Siemens Healthineers, Erlangen, Germany).

[7] = tested on: erythrocyte membranes; assay: Hemolysis in whole blood (Kahn method); assay type: cell-based, human
Experimental: (§2) Hemolysis was tested with fresh citrate anticoagulated blood from healthy volunteers as well as with blood cells which were suspended in phosphate buffered saline (10 mM pH 7.4). Afterwards, 100 μL AMP solution was added to 500 μL blood to finally achieve AMP concentrations of 8, 32, and 128 μg/mL. As the negative and positive control, 100 μL PBS buffer and 100 μL 12% Triton-X buffer was added to 500 μL blood, respectively. After incubation on an orbital shaker for 60 min at 37 °C, the cells were removed by centrifugation and 100 μL of the supernatant were transferred to a 96 well microplate for hemolysis measurement. The hemolysis was calculated from the extinction at the wavelengths 562, 578, and 598 nm with a Synergy 2 microplate reader (BioTek, Winooski, VT, USA) according to the method published by Kahn.

[8] = tested on: erythrocyte membranes; assay: Hemolysis in RBC suspended in PBS (Kahn method); assay type: cell-based, human
Experimental: as §2

[9] = tested on: E. coli (ATCC 11303); assay: microbe, parasite or virus in culture; assay type: cell-based; settings: for MIC: Escherichia coli
[10] = tested on: plasmatic coagulation; assay: Activation of the clotting cascade in citrated plasma; settings: citrated (17 mM) plasma, 128 μg/mL, 37 °C, 120 min, turbidity at 600 nm
Experimental: (§3) Plasma spiked with MES buffer without AMP was used as the negative control. […] Samples were incubated at 37 °C for 120 min. Coagulation was determined by turbidity measurement at 600 nm using a well plate reader.

[11] = tested on: plasmatic coagulation; assay: Activation of the clotting cascade in heparinized plasma; settings: heparinized (0.5 IU/mL) plasma, 128 μg/mL, 37 °C, 120 min, turbidity at 600 nm
Experimental: as §3

[12] = tested on: all species of Enterobacteriaceae and Staphylococcus; settings: against all species of Enterobacteriaceae and Staphylococcus; cited from earlier work
Experimental: It is noticeable that the MIC decreases with increasing acylation length of the peptide (Table 1). The antimicrobial effect of the LF11-322 peptides against E. coli and S. aureus decreased when the MIC was tested in 4% HSA solution. This is probably due to the partial binding of AMPs to albumin.

[13] = citrate plasma, 37 °C, 60 min, turbidity 600 nm, fibrinogen and D-Dimer

## CCCCCCCCCCCCCC(=O)N1CCC[C@H]1C(=O)N[C@@H](Cc1ccccc1)C(=O)N[C@@H](Cc1c[nH]c2ccccc12)C(=O)N[C@@H](CCCNC(=N)N)C(=O)N[C@H](C(=O)N[C@@H](CCCNC(=N)N)C(=O)N[C@H](C(=O)N[C@@H](CCCNC(=N)N)C(=O)N[C@@H](CCCNC(=N)N)C(N)=O)[C@@H](C)CC)[C@@H](C)CC [LF11-322-C14] (Myristoyl-PFWRIRIRR-NH2)
[1]
  Platelet count in citrate anticoagulated PRP vs control (in words): significantly reduce the platelet count
[2]
  Percentage of dead leukocytes: 21 ± 16%
[3]; ATCC 12600, pH 7.4
  Minimal Inhibitory Concentration, S. aureus, PBS: 8 µg/mL
[4]
  Platelet morphology by SEM, citrate anticoagulated PRP (in words): hardly any intact platelets left
[5]
  Platelet count in heparinized PRP vs control (in words): no significant difference in platelet count
[6]
  Peptide concentration that triggers clotting of citrate plasma: ≥ 32 µg/mL
[7]
  Free Hemoglobin, BLOOD, 8 μg/mL: 2.9 ± 3.4 mg/dL
  Free Hemoglobin, BLOOD, 32 μg/mL: 5.4 ± 3.2 mg/dL
  Free Hemoglobin, BLOOD, 128 μg/mL: 2.9 ± 4.2 mg/dL
[8]; pH 7.4
  Free Hemoglobin, RBC in PBS, 8 μg/mL: 12.9 ± 1.2 mg/dL
  Free Hemoglobin, RBC in PBS, 32 μg/mL: 31.8 ± 3.14 mg/dL
[9]; ATCC 11303, pH 7.4
  Minimal Inhibitory Concentration, E. coli, PBS: 64 µg/mL

## CC[C@H](C)[C@H](NC(=O)[C@H](CCCCN)NC(=O)[C@H](CCC(=O)O)NC(=O)[C@H](CCCCN)NC(=O)[C@H](CO)NC(=O)[C@H](CCCCN)NC(=O)[C@H](CCCNC(=N)N)NC(=O)[C@H](Cc1ccccc1)NC(=O)[C@H](Cc1ccccc1)NC(=O)[C@H](CC(=O)O)NC(=O)CNC(=O)[C@H](CC(C)C)NC(=O)[C@@H](N)CC(C)C)C(=O)NCC(=O)N[C@@H](CCCCN)C(=O)N[C@@H](CCC(=O)O)C(=O)N[C@@H](Cc1ccccc1)C(=O)N[C@@H](CCCCN)C(=O)N[C@@H](CCCNC(=N)N)C(=O)N[C@H](C(=O)N[C@H](C(=O)N[C@@H](CCC(N)=O)C(=O)N[C@@H](CCCNC(=N)N)C(=O)N[C@H](C(=O)N[C@@H](CCCCN)C(=O)N[C@@H](CC(=O)O)C(=O)N[C@@H](Cc1ccccc1)C(=O)N[C@@H](CC(C)C)C(=O)N[C@@H](CCCNC(=N)N)C(=O)N[C@@H](CC(N)=O)C(=O)N[C@@H](CC(C)C)C(=O)N[C@H](C(=O)N1CCC[C@H]1C(=O)N[C@@H](CCCNC(=N)N)C(=O)N[C@H](C(=O)N[C@@H](CCC(=O)O)C(=O)N[C@@H](CO)C(=O)O)[C@@H](C)O)C(C)C)[C@@H](C)CC)C(C)C)[C@@H](C)CC [LL-37, reference compound]
[10]
  Plasma clot, Citrated Plasma: −
[11]
  Plasma clot, Heparin Plasma: −
[6]; [13]
  Clotting of citrate plasma, Peptide Concentration 8 μg/mL: −
  Clotting of citrate plasma, Peptide Concentration 32 μg/mL: −
  Clotting of citrate plasma, Peptide Concentration 128 μg/mL: −
  Clotting of citrate plasma, Peptide Concentration 256 μg/mL: −
[7]; citrate anticoagulated whole blood, peptide conc. 8 μg/mL, 60 min 37 °C, Kahn method, n = 3, control 3.7 ± 1.9
  Free Hemoglobin, BLOOD, 8 μg/mL: 1.1 ± 0.7 mg/dL
[7]; citrate anticoagulated whole blood, peptide conc. 32 μg/mL, 60 min 37 °C, Kahn method, n = 3, control 3.7 ± 1.9
  Free Hemoglobin, BLOOD, 32 μg/mL: 9.4 ± 13.4 mg/dL
[7]; citrate anticoagulated whole blood, peptide conc. 128 μg/mL, 60 min 37 °C, Kahn method, n = 3, control 3.7 ± 1.9
  Free Hemoglobin, BLOOD, 128 μg/mL: 2.6 ± 3.7 mg/dL
[8]; blood cells suspended in PBS 10 mM pH 7.4, highest peptide conc., 60 min 37 °C, Kahn method, n = 3, control 8.5 ± 4.7
  Free Hemoglobin, RBC in PBS, 128 μg/mL: 68.4 ± 15.0 mg/dL
[8]; blood cells suspended in PBS 10 mM pH 7.4, peptide conc. 8 μg/mL, 60 min 37 °C, Kahn method, n = 3, control 8.5 ± 4.7
  Free Hemoglobin, RBC in PBS, 8 μg/mL: 2.4 ± 3.6 mg/dL
[8]; blood cells suspended in PBS 10 mM pH 7.4, peptide conc. 32 μg/mL, 60 min 37 °C, Kahn method, n = 3, control 8.5 ± 4.7
  Free Hemoglobin, RBC in PBS, 32 μg/mL: 44.8 ± 17.7 mg/dL

## O=C(O)c1cn(C2CC2)c2cc(N3CCNCC3)c(F)cc2c1=O [Ciprofloxacin, reference compound]
[3]; ATCC12600, pH 7.4, read-out: Minimal Inhibitory Concentration, S. aureus, PBS
  MIC: < 0.0625 mg/L
[3]; ATCC12600, read-out: Minimal Inhibitory Concentration, S. aureus, PBS + heparin
  MIC: < 0.0625 mg/L
[12]
  MIC90: < 1 mg/L
[9]; ATCC11303, pH 7.4, read-out: Minimal Inhibitory Concentration, E. coli, PBS
  MIC: < 0.0625 mg/L
[9]; ATCC11303, read-out: Minimal Inhibitory Concentration, E. coli, PBS + heparin
  MIC: < 0.0625 mg/L
